From patent US5880122A, “3-Carboxamide derivatives of 5H-pyrrolo[2,1-c][1,4]-benzodiazepines” (American Home Products Corporation, priority 1997, dated 1999)
Structures can show the parent of a compound that is named as a salt.

Tested on: Endogenous Arginine Vasopressin Antidiuretic (V2) Response
Assay: Antagonism of endogenous arginine vasopressin antidiuretic (V2) response in conscious rats (urine volume)
Format: in vivo, Sprague-Dawley rats
Details: oral 10 mg/kg dose, urine collected for 4 hours, no water during test
Description: On the day of test, rats were placed individually into metabolic cages equipped with stainless steel screens (to separate the feces from the urine) and funnels for collection of urine. Vehicle or reference agent was given at various oral doses. During the test, rats were not provided with water or food. Urine was collected for four hours after dosing of the test compound. At the end of four hours, urine volume was measured. […] Determinations of Na^+, K^+ and Cl^- ion were carried out using ion specific electrodes in a Beckman SYNCHRON EL-ISE Electrolyte System analyzer.

Point of comparison: `COc1cc(NC(=O)c2ccccc2-c2ccccc2)ccc1C(=O)N1Cc2ccc(C(=O)N3CCN(C)CC3)n2Cc2ccccc21` [Example 16], “Urine Volume (ml/4 hrs) 10 mg/kg rat p.o.” value 24.3 ml/4 hrs. Against it:
- Cc1ccc(F)cc1C(=O)Nc1ccc(C(=O)N2Cc3ccc(C(=O)N[N+](C)(C)C)n3Cc3ccccc32)c(Cl)c1 [Example 4] — lower, 9.2 ml/4 hrs
- Cc1ccc(F)cc1C(=O)Nc1ccc(C(=O)N2Cc3ccc(C(=O)[N-][N+](C)(C)C)n3Cc3ccccc32)c(Cl)c1 [Example 5, 2-[[10-[2-Chloro-4-[(5-fluoro-2-methylbenzoyl)amino]benzoyl]-10,11-dihydro-5H-pyrrolo[2,1-c][1,4]benzodiazepin-3-yl]hydroxymethylenel-1.1,1-trimetpyIpydraziniuminner salt] — lower, 9.1 ml/4 hrs
- O=C(Nc1ccc(C(=O)N2Cc3ccc(C(=O)O)n3Cc3ccccc32)c(Cl)c1)c1ccccc1-c1ccccc1 [Example 7] — lower, 19.2 ml/4 hrs
- CN(C)NC(=O)c1ccc2n1Cc1ccccc1N(C(=O)c1ccc(NC(=O)c3ccccc3-c3ccccc3)cc1Cl)C2 [Example 8] — higher, 40.9 ml/4 hrs
- CN1CCN(C(=O)c2ccc3n2Cc2ccccc2N(C(=O)c2ccc(NC(=O)c4ccccc4-c4ccccc4)cc2Cl)C3)CC1 [Example 9] — lower, 23.7 ml/4 hrs
- O=C(Nc1ccc(C(=O)N2Cc3ccc(C(=O)N4CCC(N5CCCCC5)CC4)n3Cc3ccccc32)c(Cl)c1)c1ccccc1-c1ccccc1 [Example 11, Biphenyl-2-carboxylic acid{3-chloro-4-[3-(4-piperidinyl-pilperidine-1-carbonyl)-5H,11H-pyrrolo[2,1-c][1,4]benzodiazepine-10-carbonyl]-phenyl}-amide.] — lower, 20.5 ml/4 hrs
- CN(C)C1CCN(C(=O)c2ccc3n2Cc2ccccc2N(C(=O)c2ccc(NC(=O)c4ccccc4-c4ccccc4)cc2Cl)C3)CC1 [Example 12, Biphenyl-2-carboxylic acid {3-chloro-4-[3-(4-dimethylamino-piperidine-1-carbonyl)-5H,11H-1pyrrolo[2,1-c][1,4]benzodiazeline-10-carbonyl]-phenyl}-amide.] — lower, 21.4 ml/4 hrs
- CN1CCN(NC(=O)c2ccc3n2Cc2ccccc2N(C(=O)c2ccc(NC(=O)c4ccccc4-c4ccccc4)cc2Cl)C3)CC1 [Example 13, Bilphenyl-2-carboxylic acid{3-chloro-4-[3-(4-methyl-piperazine-1 aminocarbonyl)-5H,11H-pyrrolo[2,1-c][1,4]benzodiazepine-10-carbonyl]-phenyl}-amide.] — lower, 16.8 ml/4 hrs
- O=C(Nc1ccc(C(=O)N2Cc3ccc(C(=O)N4CCC(N5CCOCC5)CC4)n3Cc3ccccc32)c(Cl)c1)c1ccccc1-c1ccccc1 [Example 15, Biphenyl-2-carboxylic acid{3-chloro-4-[3-(4-morpholino-1piperidine-1-carbonyl)-5H,11H-pyrrolo[2,1-c][1,4]benzodiazepine-10-carbonyl]-phenyl}-amide.] — lower, 19.3 ml/4 hrs
- COc1cc(NC(=O)c2ccccc2-c2ccccc2)ccc1C(=O)N1Cc2ccc(C(=O)NN(C)C)n2Cc2ccccc21 [Example 17] — lower, 9.4 ml/4 hrs
- O=C(O)CNC(=O)c1ccc2n1Cc1ccccc1N(C(=O)c1ccc(NC(=O)c3ccccc3-c3ccccc3)cc1Cl)C2 [Example 18] — lower, 7.8 ml/4 hrs

Biological target: T1, Human V2 Vasopressin Receptor (Homo sapiens, UniProt P30518)
T1 construct: expressed in transfected cells; host or cells: mouse fibroblast cell line LV-2
Assay: Binding to membranes of mouse fibroblast cell line (LV-2) transfected with the cDNA expressing the human V2 vasopressin receptor
Details: LV-2 cell membranes, [3H] Arginine8 vasopressin 0.8 nM, 120 min
Description: Flasks of 175 ml capacity, containing attached cells grown to confluence, are cleared of culture medium by aspiration. The flasks containing the attached cells are rinsed with 2×5 ml of phosphate buffered saline (PBS) and the liquid aspirated off each time. Finally, 5 ml of an enzyme free dissociation Hank's based solution (Specialty Media, Inc., Lafayette, N.J.) is added and the flasks are left undisturbed for 2 min. The content of all flasks is poured into a centrifuge tube and the cells pelleted at 300×g for 15 min. […] The homogenate is centrifuged at 1500×g for 10 min to remove ghost membranes. […] Upon completion, the pellet is resuspended in a small volume of 50.0 mM Tris.HCl buffer, pH 7.4. The protein content is determined by the Lowry method and the receptor membranes are suspended in 50.0 mM Tris.HCl buffer containing 0.1 mM phenylmethylsulfonylfluoride (PMSF) and 0.2% bovine serum albumin (BSA) to give 2.5 mg receptor protein per ml of suspension.
Arginine^8, vasopressin (S.A. 75.0 Ci/mmole) at 0.8 nM and the reaction initiated by the addition of 80.0 ml of tissue membranes (200.0 mg tissue protein). […] Non specific binding is assessed in the presence of 1.0 mM of unlabeled ligand, added in 20 ml volume. […] The data are analyzed for IC50 values by the LUNDON-2 program for competition (LUNDON SOFTWARE, Ohio).

T1 sequence (P30518 whole entry): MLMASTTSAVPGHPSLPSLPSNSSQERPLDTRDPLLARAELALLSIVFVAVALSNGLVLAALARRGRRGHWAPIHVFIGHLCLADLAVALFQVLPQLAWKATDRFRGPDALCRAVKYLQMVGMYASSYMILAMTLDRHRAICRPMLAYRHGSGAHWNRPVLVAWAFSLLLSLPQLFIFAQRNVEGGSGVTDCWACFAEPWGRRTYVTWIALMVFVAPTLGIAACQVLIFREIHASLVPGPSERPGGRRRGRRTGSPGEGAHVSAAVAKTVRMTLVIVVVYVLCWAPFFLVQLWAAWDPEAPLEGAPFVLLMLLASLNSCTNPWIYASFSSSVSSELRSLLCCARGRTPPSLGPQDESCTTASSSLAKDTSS

Point of comparison: `Cc1ccc(F)cc1C(=O)Nc1ccc(C(=O)N2Cc3ccc(C(=O)[N-][N+](C)(C)C)n3Cc3ccccc32)c(Cl)c1` [Example 5, 2-[[10-[2-Chloro-4-[(5-fluoro-2-methylbenzoyl)amino]benzoyl]-10,11-dihydro-5H-pyrrolo[2,1-c][1,4]benzodiazepin-3-yl]hydroxymethylenel-1.1,1-trimetpyIpydraziniuminner salt], IC50 60 nM. Against it:
- O=C(Nc1cc(C(=O)N2Cc3ccc(C(=O)C(Cl)(Cl)Cl)n3Cc3ccccc32)ccc1Cl)c1ccccc1-c1ccccc1 [Example 6, N-[5-[3-trichloromethylcarbnyl]-[5H-pyrrolo-[2,1-c]-[1,4]-benzdiazalin-10(11H)-ylcarbonyl]-2-chloronhenyl]-2-henylbenzamide] — 11-fold lower, 5.6 nM
